Tests used:
[1] = system: duplex-form calf thymus DNA (CT-DNA); experiment: Thermal denaturation studies with CT-DNA; format: binding; details: [BPD]:[DNA] molar ratio 1:5, CT-DNA 100 μM, ligand 20 μM, pH 7.00
Method: Compounds were subjected to thermal denaturation studies with duplex-form calf thymus DNA (CT-DNA). Working solutions in aqueous buffer (10 mM NaH2PO4/Na2HPO4, 1 mM Na2EDTA, pH 7.00+0.01) containing CT-DNA (100 μm in phosphate) and the BPD (20 μm) were prepared by addition of concentrated BPD solutions in DMSO to obtain a fixed [BPD]/[DNA] molar ratio of 1:5. The DNA-BPD solutions were incubated at 37° C. for 0, 18, and 36 h prior to analysis. Samples were monitored at 260 nm using a Beckman DU-7400 spectrophotometer fitted with high performance temperature controller, and heating was applied at 1° C. min-1 in the 40-90° C. range. DNA helix coil transition temperatures (Tm) were obtained from the maxima in the (dA260)/dT derivative plots. Results are given as the mean±standard deviation from three determinations and are corrected for the effects of DMSO co-solvent using a linear correction term. Drug-induced alterations in DNA melting behavior are given by: ΔTm=Tm(DNA+BPD)−Tm(DNA alone), where the Tm value for the BPD-free CT-DNA is 69.0±0.01.

[2] = system: sixty human tumor cells derived from nine cancer types; experiment: NCI in vitro anticancer screen, 48 h exposure, SRB assay, mean over all lines; format: cell-based
Method: (§1) Compounds described herein were evaluated for in vitro anticancer activity. Particularly the 6a, 6b, 6d, 6h, 8a and 8b compounds were evaluated for in vitro anticancer activity against sixty human tumor cells derived from nine cancer types (leukemia, non-small-cell lung, colon, […], ovarian, prostate, and breast cancer) as shown in (Table 2 and 3). For the compound, dose response curves for each cell line were measured at a minimum of five concentrations at 10 fold dilutions. A protocol of 48 h continuous drug exposure was used and a sulforhodamine B (SRB) protein assay was used to estimate cell viability or growth. The concentration causing 50% cell growth inhibition (GI50), total cell growth inhibition (TGI 0% growth) and 50% cell death (LC50, −50% growth) compared with the control was calculated.

[3] = system: Leukemia cancer cell lines; experiment: NCI in vitro anticancer screen, leukemia panel; format: cell-based, human; details: Homo sapiens, average of six to nine cell lines, read-out: Log GI50 (concentration in mol/L causing 50% growth inhibition) (converted)
Method: as §1

[4] = system: Nonsmall-cell-lung cancer cell lines; experiment: NCI in vitro anticancer screen, non-small-cell lung panel; format: cell-based, human; details: Homo sapiens, average of six to nine cell lines, read-out: Log GI50 (concentration in mol/L causing 50% growth inhibition) (converted)
Method: as §1

Colon cancer cell lines = experiment: NCI in vitro anticancer screen, colon panel; format: cell-based, human; details: Homo sapiens, average of six to nine cell lines, read-out: Log GI50 (concentration in mol/L causing 50% growth inhibition) (converted)
Method: as §1

CNS cancer cell lines = experiment: NCI in vitro anticancer screen, CNS panel; format: cell-based, human; details: Homo sapiens, average of six to nine cell lines, read-out: Log GI50 (concentration in mol/L causing 50% growth inhibition) (converted)
Method: as §1

[5] = system: Melanoma cancer cell lines; experiment: NCI in vitro anticancer screen, melanoma panel; format: cell-based, human; details: Homo sapiens, average of six to nine cell lines, read-out: Log GI50 (concentration in mol/L causing 50% growth inhibition) (converted)
Method: as §1

[6] = system: Ovarian cancer cell lines; experiment: NCI in vitro anticancer screen, ovarian panel; format: cell-based, human; details: Homo sapiens, average of six to nine cell lines, read-out: Log GI50 (concentration in mol/L causing 50% growth inhibition) (converted)
Method: as §1

Renal cancer cell lines = experiment: NCI in vitro anticancer screen, renal panel; format: cell-based, human; details: Homo sapiens, average of six to nine cell lines, read-out: Log GI50 (concentration in mol/L causing 50% growth inhibition) (converted)
Method: as §1

[7] = system: Prostate cancer cell lines; experiment: NCI in vitro anticancer screen, prostate panel; format: cell-based, human; details: Homo sapiens, average of six to nine cell lines, read-out: Log GI50 (concentration in mol/L causing 50% growth inhibition) (converted)
Method: as §1

Breast cancer cell lines = experiment: NCI in vitro anticancer screen, breast panel; format: cell-based, human; details: Homo sapiens, average of six to nine cell lines, read-out: Log GI50 (concentration in mol/L causing 50% growth inhibition) (converted)
Method: as §1

[8] = system: HOP-62, NCI-H23 cell lines; experiment: NCI in vitro anticancer screen, non-small cell lung lines; format: cell-based; details: Homo sapiens, non-small cell lung cancer panel
Method: as §1
(§2) In the non-small cell lung cancer panel, the growth of HOP-62, […] were affected by compound 6d with G150 values as 11.7, 13.9 and 17.2 nM respectively. […] In vitro cytotoxicity of compounds 6d, 8a, and 8b in selected cancer cell lines has been illustrated in Table 3. The average G150 values for each cancer panel of compounds 6a, 6b, 6d, 6e, 8a and 8b have been illustrated in Table 2.

[9] = system: colon cancer HCC-2988 cell line; experiment: NCI in vitro anticancer screen, HCC-2988; format: cell-based; details: Homo sapiens
Method: as §1, §2

[10] = system: colon cancer HCT-116 cell line; experiment: NCI in vitro anticancer screen, HCT-116; format: cell-based; details: Homo sapiens
Method: as §1, §2

[11] = system: colon cancer KM12 cell line; experiment: NCI in vitro anticancer screen, KM12; format: cell-based; details: Homo sapiens
Method: as §1, §2

[12] = system: CNS SF-295, SF-539, SNB-19 and SNB-75 cell lines; experiment: NCI in vitro anticancer screen, CNS lines; format: cell-based; details: Homo sapiens; range over SF-295, SF-539, SNB-19 and SNB-75
Method: as §1, §2

[13] = system: ovarian cancer OVCAR-4 cell line; experiment: NCI in vitro anticancer screen, OVCAR-4; format: cell-based; details: Homo sapiens
Method: as §1, §2

[14] = system: ovarian cancer OVCAR-5 cell line; experiment: NCI in vitro anticancer screen, OVCAR-5; format: cell-based; details: Homo sapiens
Method: as §1, §2

[15] = system: ovarian cancer OVCAR-8 cell line; experiment: NCI in vitro anticancer screen, OVCAR-8; format: cell-based; details: Homo sapiens
Method: as §1, §2

[16] = system: ovarian cancer SK-OV-3 cell line; experiment: NCI in vitro anticancer screen, SK-OV-3; format: cell-based; details: Homo sapiens
Method: as §1, §2

[17] = system: renal and breast cancer panels; experiment: NCI in vitro anticancer screen, renal and breast panels; format: cell-based; details: Homo sapiens; range over renal and breast cancer panels
Method: as §1, §2

[18] = system: human cancer cell lines of colon (Colo205), lung (Hop-62), cervix (SiHa), prostate (DU145, PC3), oral (DWD, HT1080), and breast (MCF7, Zr-75-1) origin; experiment: In vitro evaluation of cytotoxic activity in selected human cancer cell lines, 48 h exposure; format: cell-based; details: 48 h continuous drug exposure
Method: In vitro evaluation of cytotoxic activity. Compounds 6a, 6b, 6d, 6e, 8a and 8b were evaluated for in vitro anticancer activity against nine human tumor cells derived from six cancer types (colon, prostate, oral, lung, cervix and breast cancer) as shown in Table 2. […] Compounds 6a, 6b, 6d, 6e, 8a and 8b have been evaluated for their in vitro cytotoxicity in selected human cancer cell lines of colon (Colo205), lung (Hop-62), cervix (SiHa), prostate (DU145, PC3), oral (DWD, HT1080), and breast (MCF7, Zr-75-1) origin. A protocol of 48 h continuous drug exposure has been used and an […] has been used to estimate cell viability or growth. The results are expressed as percent of cell growth determined relative to that of untreated control cells

O=C(CN1CCN(c2ncnc3ccccc23)CC1)Nc1ccc(Cl)cc1C(=O)c1ccccc1Cl [Compound 6d, N1-4-chloro-2-(2-chlorobenzoyl)phenylJ-2-[4-(4-quinazolinyl)piperazino]acetamide]
ΔTm after incubation at 37° C. for 0 h ([1]; 0 h): 1.5 °C
ΔTm after incubation at 37° C. for 18 h ([1]; 18 h): 1.9 °C
ΔTm after incubation at 37° C. for 36 h ([1]; 36 h): 2.7 °C
GI50 ([2]; Homo sapiens, wide spectrum of activity against sixty cell lines in nine cell panels): < 20000 nM
Log10LC50 mean graph midpoint (MG_MID) ([2]; human tumor cell lines, 48 h exposure, 50% cell death): −4.62
Log10GI50 mean graph midpoint (MG_MID) ([2]; human tumor cell lines, 48 h exposure, 50% cell growth inhibition): −6.82
Log10TGI mean graph midpoint (MG_MID) ([2]; human tumor cell lines, 48 h exposure, total cell growth inhibition): −6.56
GI50 [3]: 151 nM
GI50 [4]: 389 nM
GI50 (Colon cancer cell lines): 229 nM
GI50 (CNS cancer cell lines): 224 nM
GI50 [5]: 204 nM
GI50 [6]: 219 nM
GI50 (Renal cancer cell lines): 214 nM
GI50 [7]: 398 nM
GI50 (Breast cancer cell lines): 178 nM
GI50 [8]: 11.7 nM
GI50 [9]: 11.6 nM
GI50 [10]: 11.2 nM
GI50 [11]: 11.4 nM
GI50 [12]: 11.6 to 24.2 nM
GI50 [13]: 30.6 nM
GI50 [14]: 14.9 nM
GI50 [15]: 30.5 nM
GI50 [16]: 78.6 nM
GI50 [17]: 11.6 to 43.4 nM
cytotoxicity against some cancer cell lines [18]: promising cytotoxicity
